Where two headings read alike, the source gives them in different places.

Assay [1] has as its system green rice leafhopper which had acquired resistance to chemicals. The experiment in a line: Rice seedling dip test, mortality of resistant green rice leafhopper larvae (Test Example 1). It counts as in vivo. The settings on record: Nephotettix cincticeps, read-out: Mortality (%), 500 ppm. The text has this:
(§1) Five rice seedlings having a height of about 7 cm were dipped, for 10 seconds, into aqueous dilutions of wettable powder each containing a predetermined concentration of each sample compound, prepared in accordance with the procedure as described in Formulation Example 1. After air drying, the roots of the five rice seedlings were wrapped with sanitary cotton dampened with water, and placed in a glass cylinder having a diameter of 3 cm and a height of 20 cm. Ten second instar larvae of a green rice leafhopper which had acquired resistance to chemicals were released into each glass cylinder. The cylinder was allowed to stand in a room maintained at 26° C. The mortality of the larvae was examined 48 hours after treatment.

For assay [2], the system named is brown rice planthopper which had acquired resistance to chemicals. The assay can be described thus: Rice seedling dip test, mortality of resistant brown rice planthopper larvae (Test Example 2). It is filed as in vivo. The note with it: read-out: Mortality (%), 500 ppm.
Description: as §1, with “brown” for “green”, “planthopper” for “leafhopper”

Setting [3] is: 500 ppm wettable powder dilution, rice seedlings dipped 10 seconds, second instar larvae, 48 hours after treatment, 26° C.

Take `CN1CN(C)C(=N[N+](=O)[O-])N(Cc2cnc(Cl)s2)C1` [compound 6, 1-(2-chloro-5-thiazolylmethyl)-3,5-dimethyl-2-nitroiminohexahydro-1,3,5-triazine]: the mortality at 500 ppm in assay [1] (setting [3]) and in assay [2] (setting [3]) was 100% each time.

As for `CCN1CNC(=N[N+](=O)[O-])N(Cc2ccc(Cl)nc2)C1` [Compound No. 2, 1-(2-chloro-5-pyridylmethyl)-5-ethyl-2-nitroiminohexahydro-1,3,5-triazine], the mortality at 500 ppm in assay [1] (setting [3]) and in assay [2] (setting [3]) was 100% throughout.

With `CN1CN(C)C(=N[N+](=O)[O-])N(Cc2ccc(Cl)nc2)C1` [compound 5, 1-(2-chloro-5-pyridylmethyl)-3,5-dimethyl-2-nitroiminohexahydro-1,3,5-triazine], the mortality at 500 ppm in assay [1] (setting [3]) and in assay [2] (setting [3]) was 100% in each case.

Turning to `Cc1cc(OP(C)(C)=S)ccc1[N+](=O)[O-]` [Comparative Compound, reference compound], the values for the mortality at 500 ppm in assay [1] (48 h) and in assay [2] (48 h) were 70% and 65%, respectively.

On to `CN1CNC(=N[N+](=O)[O-])N(Cc2ccc(Cl)nc2)C1` [compound 1, 1-(2-chloro-5-pyridylmethyl)-5-methyl-2-nitroiminohexahydro-1,3,5-triazine], for which the mortality at 500 ppm in assay [1] (setting [3]) and in assay [2] (setting [3]) was 100% in each case.

The record behind these values is US20010046994A1, “Hexahydrotriazine compounds and insecticides” (priority 1989, published 2001).
